Measured values from patent US7160916B2, “Method of increasing bone density or treating osteoporosis” (Yung Shin Pharmaceutical Ind. Co., Ltd., priority 2003, dated 2007).

Key:
[1] = test system: adult male rats; assay: Bone loss induced by the cut of sciatic nerve; type: in vivo, rat; parameters: Tibia BMD / Tibia BMC / Femur BMD / Femur BMC: unit not given here; settings: for Bone volume / Femur BMC / Femur BMD / Femur length / Femur weight / Tibia BMC / Tibia BMD / Tibia length / Tibia weight: i.p. 1 mg/kg daily for 1 month, mean ± S.E., n=10
Description: Bone histomorphometry: After formalin fixation of tibia was completed, the tibiae were then decalcified in 0.5 N hydrochloric acid, dehydrated in an ascending series of ethanol solution and acetone, and embedded in paraffin. Serial sections (5 μm) were cut longitudinally and stained with Mayer's hematoxylin-eosin solution (Yang et al. (1993) Calcif Tissue Int 52:57–61). Images of the growth plate and proximal tibia were photographed using a photoMicroGraphic Digitize integrate System (MGDS; Total-Integra Technology Co., Ltd., Taipei, Taiwan). Bone volume measurements were performed on the whole secondary spongiosa, which is located under the primary spongiosa and characterized by a network of larger trabeculae. Bone volumes were calculated using an image analysis software. All measurements were done in a single-blind fashion. Ovariectomy and cut of sciatic nerve: Ovariectomy and cut of sciatic nerve were performed in adult female and male rats (3 month-old), respectively. After surgery, the rats were injected with Indazole 1 (i.p., 1 mg/Kg) or a vehicle daily for 4 weeks. On the day following the last injection, the rats were sacrificed and their tibia and femur were removed. Tibia and femur Preparation: At the end of the program, the rats were sacrificed by decapitation. The tibiae were removed, cleaned of soft tissue, and the length of the tibia was measured with a precision caliper (±0.05 mm) as described by Weinreb et al. (1991) J Bone Miner Res 6:725–731. The tibiae were fixed in 10% formaldehyde for 48 h at 4° C. for bone histomorphometry analysis. Some of the tibia and femur were also removed and kept at −20° C. for bone mineral analysis. Analysis of bone mineral density (BMD) and content (BMC): BMD and BMC of the tibia and femur were measured with a dual-energy X-ray absorptiometer (DEXA, XR-26; Norland, Fort Atkinson, Wis.). The mode adapted to the measurements of small subjects was adopted. A coefficient of variation of 0.7% was calculated from daily measurements of BMD on a lumbar phantom for more than 1 year (Yang et al. (1998) Calcif Tissue Int 63:86–90). The tibia and femur were thawed to room temperature before bone mineral analysis. The whole tibiae and femur were scanned and BMD and BMC were measured by absorptiometer.

[2] = test system: osteoclast precursors; assay: Osteoclastogenesis (TRAP-positive multinucleated cells); type: cell-based, rat; settings: M-CSF 20 ng/ml and sRANKL 50 ng/ml, 8 days
Description: Osteoclastogenesis: Bone marrow cells were prepared by removing femurs from 6–8-week-old SD rats and flushing the bone marrow cavity with DMEM which was supplemented with 20 mM HEPES and 10% heat-inactivated FCS, 2 mM-glutamine, penicillin (100 U/ml) and streptomycin (100 μg/ml). After 24 hr, the non-adherent cells (hematopoietic cells) were collected and used as osteoclast precursors. The cells were seeded at 1×10^6 cells/well (0.5 ml) in 24-well plates in the presence of human recombinant soluble RANKL (50 ng/ml, Peprotech EC Ltd., London, United Kingdom) and murine M-CSF (20 ng/ml, Genzyme, Cambridge, Mass.). The culture medium was changed every 3 days. After 8˜10 days, osteoclast formation was confirmed by an assay of tartrate-resistant acid phosphatase (TRAP) (Kotake et al., 1999). In brief, the adherent cells were fixed with 10% formaldehyde in phosphate-buffered saline for 3 min. After treatment with ethanol/acetone (50:50 v/v) for 1 min, the cell surface was air dried and incubated for 10 min at room temperature in an acetate buffer (0.1 M sodium acetate, pH 5.0) containing 0.01% naphthol AS-MX phosphate (Sigma) and 0.03% fast red violet LB salt (Sigmna) in the presence of 50 mM sodium tartrate. Osteoclast-like TRAP-positive cells in each well were scored by counting the number of TRAP-positive and multinucleated cells containing more than three nuclei.

[3] = test system: Primary osteoblast cells; assay: von Kossa staining, bone nodule formation; type: cell-based, rat; settings: treatment for 2 weeks
Description: Primary osteoblast cultures: Primary osteoblast cells were prepared from calvaria of 18-day-old fetal Sprague-Dawley (SD) rats according to the following method: Pregnant rats were put in anesthesia using intraperitoneal injection of trichloroacetaldehyde (200 mg/kg). The calvaria of the fetal rats were then dissected with aseptic technique. Soft tissues were removed under a dissecting microscope. The calvaria were divided into small pieces and then treated with 0.1% collagenase (Sigma Chemical, St. Louis, Mo.) solution for 10 minutes at 37° C. The cells released from the calvariae by two 20-minute sequential collagenase digestions were pooled and filtered through 70 μm nylon filters (Falcon, BD BioSciences, San Jose, Calif.). […]
von Kossa staining: Osteoblasts were cultured in DMEM containing 50 μg/ml vitamin C and 10 mM β-glycerophosphate for 2 weeks and the medium was changed every 3 days. […] The number of nodules formed per well was counted under a light microscope. Collagen synthesis was determined by measuring the 4-hydroxyproline content in cultured osteoblasts. […] After lyophilizing and reconstituting a lysate in distilled water, the amount of 4-hydroxyproline was determined by spectrophotometry at 550 nm as described by Berg (1982) Meth Enzymol. […]

## OCc1ccc(-c2nn(Cc3ccccc3)c3ccccc23)o1 [Indazole 1, 1-benzyl-3-(5′-hydroxymethyl-2′-furyl)-indazole]
[1]; 1 mg/kg daily for 4 weeks immediately after the cut of sciatic nerve
  bone loss induced by nerve section: antagonized the bone loss
[1]; Contralateral side
  Bone volume: 11.9 ± 0.98%
  Femur BMC: 0.419 ± 0.016
  Femur BMD: 0.132 ± 0.003
  Femur length: 3.95 ± 0.02 cm
  Femur weight: 1.16 ± 0.03 g
  Tibia BMC: 0.282 ± 0.013
  Tibia BMD: 0.106 ± 0.002
  Tibia length: 4.36 ± 0.01 cm
  Tibia weight: 0.92 ± 0.03 g
[1]; Surgery side
  Bone volume: 9.43 ± 0.8%
  Femur BMC: 0.394 ± 0.015
  Femur BMD: 0.129 ± 0.003
  Femur length: 3.96 ± 0.01 cm
  Femur weight: 1.17 ± 0.03 g
  Tibia BMC: 0.298 ± 0.014
  Tibia BMD: 0.106 ± 0.002
  Tibia length: 4.35 ± 0.01 cm
  Tibia weight: 0.91 ± 0.03 g
[2]
  differentiation of osteoclast: inhibited the differentiation of osteoclast in a concentration-dependent manner
[3]
  number of bone nodules (von Kossa staining): increased the number of bone nodules in a concentration-dependent manner
